Reference: patent US20030103945A1, “Methods and compositions for stimulating axon regeneration and preventing neuronal cell degeneration” (priority 2001, published 2003)
Where a SMILES comes first, the peptide text is derived from it. The star is where a group is joined. Cbz = O=C(OCc1ccccc1)*; CH2F = FC*

Experiments:
retinal explants = test: Retinotectal explant coculture, cell death (SYTOX green) and retinal axon growth; type: cell-based, mouse; design: protection of cells from death compared with bcl-2 transgenic mouse: dose or concentration left out as unconfirmed; settings: wild-type P2 mice
Description: Whether these two activities of neurons, survival and axonal growth, can be separated in vitro was next examined. The anti-apoptotic function of bcl-2 is well established (Davies, A. A TINS 18, 355-358 (1995); Korsmeyer, S. J. hnmunol. Today 13, 285-288 (1992); Farlie, et al. Proc. Natl. Acad Sci. USA 92, 4397-4401 (1995); Bonfanti, L. et al. J Neurosci. 16, 4186-4194 (1996)). Therefore, it is especially important to examine whether its growth-promoting activity is simply an indirect consequence of supporting cell survival. […] Note that this occurs in the absence of any neurotrophic factors added to the culture medium. The effect of the ICE inhibitor was also tested in the explant coculture system with tissue prepared from wild-type P2 mice. […] While treatment with ZVAD was sufficient to prevent death of RGCs, it is not sufficient to promote axonal growth. […] Evidence from other investigators (when viewed in conjunction with that provided herein) also support the theme that cell survival and axonal growth are two independent activities of neurons (Sagot, Y., Tan, S. A-Hammang, J. P., Aebischer, P. & Kato, A. C. J Neurosci. 16, 2335-2341 (1996); Dusart, 1. & Sotelo, C. J Comp. Neurol. 347, 211-232 (1994)). The regenerative failure of retinal axons and the decrease of bcl-2 levels in RGCs occur (E 18) before programmed cell death starts (P 1 P5) (Young, R. W. J Comp. Neurol. 229, 362-373 (1984)). […] These all support the position that bcl-2 promotes axonal growth through a mechanism independent of its anti apoptotic activity.
Brains were dissected into ice-cold Gey's balanced salt solution enriched with glucose. […] Retinal explants were abutted against tectal slices. Tissues were placed on the microporous membrane of Millicell wells (Millipore) and maintained in NeuralBasal medium supplemented with B27 (GIBCO Inc., New York) at 370C for five days. To exclude the possibility that tectal tissues from mutant mice may affect axonal growth of RGCs, a series of parallel experiments were performed in which one retinal explant of each mouse was confronted with the tecturn from the same mouse, while the second retinal explant was placed against the tecturn from another mouse. With this arrangement, retinal explants from each animal had the possibility of being cocultured with the tecturn from a wild-type, heterozygous, or homozygous animal. The number of regenerating axons was sampled by applying the lipophilic carbocyanine fluorescent label, DiI, in crystals to fixed retinal explants. The cocultures were stored in fixative for two-four weeks to allow diffusion of the dye, and labeled retinal axons were viewed with a fluorescence microscope (Nikon).
The brain sections were visualized with a Nikon microscope and site of the lesion was reconstructed in 3 dimensions with MIT Neurotrace computer software. Primary cultures of dissociated retinal cells were prepared from […] wild type or transgenic animals. RGCs were prelabeled by injecting DiI solution (25% in Dimethyl Formamide) into the tectal region bilaterally in PO pups. Cells were plated in 24-cell wells treated with poly-L-lysine (10 μg/ml, 4° C. overnight) and coated with Human Merosin ([…], r.t., 2 hr)(Meyer-Franke, A. and Barres, B. A. Neuron 15, 805-819 (1995)). Cultures were maintained for 2 to 3 days in NeuralBasal medium supplemented with B27. […] Cell death was detected by staining with the fluorescent dye, SYTOX green fluorescent dead cell stain (Molecular Probes). […]

RGCs = test: Dissociated retinal cell culture, RGC survival and neurite outgrowth; type: cell-based, mouse; design: RGC death in dissociated retinal cell culture: dose or concentration left out as unconfirmed
Description: Whether these two activities of neurons, survival and axonal growth, can be separated in vitro was next examined. The anti-apoptotic function of bcl-2 is well established (Davies, A. A TINS 18, 355-358 (1995); Korsmeyer, S. J. hnmunol. Today 13, 285-288 (1992); Farlie, et al. Proc. Natl. Acad Sci. USA 92, 4397-4401 (1995); Bonfanti, L. et al. J Neurosci. 16, 4186-4194 (1996)). Therefore, it is especially important to examine whether its growth-promoting activity is simply an indirect consequence of supporting cell survival. […] Note that this occurs in the absence of any neurotrophic factors added to the culture medium. The effect of the ICE inhibitor was also tested in the explant coculture system with tissue prepared from wild-type P2 mice. […] While treatment with ZVAD was sufficient to prevent death of RGCs, it is not sufficient to promote axonal growth. […]
The brain sections were visualized with a Nikon microscope and site of the lesion was reconstructed in 3 dimensions with MIT Neurotrace computer software. […] Cell death was detected by staining with the fluorescent dye, SYTOX green fluorescent dead cell stain (Molecular Probes). […]

[1] = increasing concentration of ZVAD (50, 100, 200)

**Q.** For CC(C)[C@H](NC(=O)OCc1ccccc1)C(=O)N[C@@H](C)C(=O)N[C@@H](CC(=O)O)C(=O)CF [ZVAD, Z-Val-Ala-Asp-CH2F] (Cbz-Val-Ala-Asp-CH2F), which “number of axons that invaded tectal slices, wild-type cultures versus bcl-2 transgenic mice” value (retinal explants; 200 mM ZVAD) is on record?
**A.** 10 fold less

**Q.** What about the “number of dying cells in retinal explants with increasing concentration” value (retinal explants; [1]) of the same compound?
**A.** decreased

**Q.** And the “number of growing axons with increasing concentration” value (retinal explants; [1])?
**A.** did not change significantly

**Q.** And the “protection of cells from death compared with bcl-2 transgenic mouse” value (retinal explants)?
**A.** protected cells from death almost as well as bcl-2 in the transgenic mouse

**Q.** And the “extent of cell death in retinal explants” value (retinal explants; explant coculture)?
**A.** reduced the extent of cell death in retinal explants

**Q.** What about the “RGC death in dissociated retinal cell culture” value (RGCs; 2 days in culture, retinae of P2 pups) of the same compound?
**A.** effectively reduced RGC death

**Q.** And the “morphology and neurites of labeled RGCs from wild-type animals” value (RGCs; ZVAD-treated dissociated culture, no neurotrophic factors added)?
**A.** round and devoid of neurites
